Experimental findings from PMC10310036, “Variability in phenylalanine side chain conformations facilitates broad substrate tolerance of fatty acid binding in cockroach milk proteins” (PLOS ONE, 2023) are described below.

Holding throughout (test): intrinsic tryptophan fluorescence titration
Assay [1] has as its target T1, Lili-Mip2 (Diploptera punctata, UniProt Q6SVB5).
T1 construct: recombinant, codon-optimised synthetic gene, secreted from S. cerevisiae FGY217 with Ost1 or alpha-factor signal; untagged pYES2 version likely (also made with C-terminal His tag)
It counts as binding. An excerpt: intrinsic tryptophan fluorescence titration on Lili-Mip2

The target in assay [2] is T2, Lili-Mip3.
T2 construct: recombinant, codon-optimised synthetic gene, secreted from S. cerevisiae FGY217 with Ost1 or alpha-factor signal; untagged pYES2 version likely (also made with C-terminal His tag)
The class given is binding, Diploptera punctata. To be noted: 50 mM sodium acetate pH 4.8, 100 mM NaCl, 25°C, delipidated protein. The text has this:
intrinsic tryptophan fluorescence titration on Lili-Mip3

The target in assay [3] is T3, Lili-Mip1 (Diploptera punctata, UniProt Q6SVB6).
T3 construct: recombinant, codon-optimised synthetic gene, secreted from S. cerevisiae FGY217 with Ost1 or alpha-factor signal; untagged pYES2 version likely (also made with C-terminal His tag)
It counts as binding. The text has this: intrinsic tryptophan fluorescence titration on Lili-Mip1

The mark [4] stands for this setting: read-out: Myristoleic acid (14:1).
The mark [5] stands for this setting: read-out: Palmitoleic acid (16:1).

Like-named read-outs stand apart in the source and are kept apart here.

T3 sequence (Q6SVB6 entry or part of it): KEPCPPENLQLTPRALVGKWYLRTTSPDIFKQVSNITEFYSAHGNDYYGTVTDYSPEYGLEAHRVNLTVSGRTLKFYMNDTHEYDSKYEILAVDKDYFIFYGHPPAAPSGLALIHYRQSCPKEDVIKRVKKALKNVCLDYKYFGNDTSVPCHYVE
T1 sequence (Q6SVB5 entry or part of it): as the sequence (Q6SVB6 entry or part of it) above, with K87E, V125I, A132S, P150H, H152R, V154L counted along it

On to `CCCCC/C=C\C/C=C\CCCCCCCC(=O)O` [Linoleic acid], for which the results for the Kd in assay [1] (read-out: Linoleic acid (18:2)), in assay [2] (read-out: Linoleic acid (18:2)) and in assay [3] (read-out: Linoleic acid (18:2)) were 2190 ± 1410 nM, 270 ± 80 nM and 1560 ± 330 nM, respectively.
With `CCCCCCCCCCCCCC(=O)O` [Myristic acid], the Kd in assay [2] (read-out: Myristic acid (14:0)) worked out at 1600 ± 510 nM; in assay [3] (read-out: Myristic acid (14:0)) it was 1960 ± 830 nM.
`CCCC/C=C\CCCCCCCC(=O)O` [Myristoleic acid]: the Kd in assay [1] (setting [4]) turned out to be 2780 ± 500 nM; in assay [2] (setting [4]), 680 ± 490 nM; in assay [3] (setting [4]), 2060 ± 420 nM.
For the compound `CCCCCCCC/C=C\CCCCCCCC(=O)O` [Oleic acid], the Kd in assay [1] (read-out: Oleic acid (18:1)) is 1710 ± 1190 nM; in assay [2] (read-out: Oleic acid (18:1)) it was 240 ± 110 nM; in assay [3] (read-out: Oleic acid (18:1)), 930 ± 310 nM.
Take `CCCCCCCCCCCCCCCC(=O)O` [Palmitic acid]: the Kd in assay [1] (read-out: Palmitic acid (16:0)) worked out at 1410 ± 880 nM; in assay [2] (read-out: Palmitic acid (16:0)), 820 ± 610 nM; in assay [3] (read-out: Palmitic acid (16:0)) it was 1760 ± 880 nM.
As for `CCCCCC/C=C\CCCCCCCC(=O)O` [Palmitoleic acid], the Kd in assay [1] (setting [5]) was determined as 2300 ± 1320 nM; in assay [2] (setting [5]), 880 ± 620 nM; in assay [3] (setting [5]), 1540 ± 910 nM.
For `CCCCCCCCCCCCCCCCCC(=O)O` [Stearic acid], the values for the Kd in assay [1] (read-out: Stearic acid (18:0)), in assay [2] (read-out: Stearic acid (18:0)) and in assay [3] (read-out: Stearic acid (18:0)) were 2320 ± 1320 nM, 1780 ± 1740 nM and 1710 ± 560 nM, respectively.
